# How the values were obtained:
# rat [1] = settings: Chronic toxicity; sprague dawley; Oral; Gavage/Intubation; dose end: 181 day; group: systemic; systemic / in life observation / body weight / body weight gain + systemic / hematology / reticulocyte / reticulocyte + systemic / pathology…
# rat [2] = settings: Sub-acute repeat dose toxicity, sprague dawley, Oral, Gavage/Intubation, dose end: 28 day, group: systemic
# dog [3] = settings: Chronic toxicity, beagle, Oral, Gavage/Intubation, dose end: 363 day, group: systemic
# rat [4] = settings: Sub-acute repeat dose toxicity; sprague dawley; Oral; Feed; dose end: 15 day; group: systemic; systemic / in life observation / body weight / body weight + systemic / in life observation / food consumption / food consumption
# mouse [5] = settings: Subchronic oral toxicity in rodents, Gavage/Intubation, dose end: 91 day, group: systemic, systemic / in life observation / body weight / body weight gain + systemic / organ weight / heart / absolute + systemic / organ weight / …
# mouse [6] = settings: Sub-acute repeat dose toxicity; Oral; Gavage/Intubation; dose end: 29 day; group: systemic; systemic / clinical chemistry / glucose / glucose + systemic / clinical chemistry / urea nitrogen / urea + systemic / hematology / leukocyte…
# primate = settings: Sub-acute repeat dose toxicity; Oral; Gavage/Intubation; dose end: 6 day; group: systemic; systemic / in life observation / clinical signs / arrhythmia + systemic / in life observation / clinical signs / emesis + systemic / in life…
# rabbit = settings: Sub-acute repeat dose toxicity; Oral; Gavage/Intubation; dose end: 5 day; group: systemic; systemic / in life observation / body weight / body weight + systemic / in life observation / clinical signs / [other] + systemic / in life …
# dog [7] = settings: Sub-acute repeat dose toxicity; beagle; Oral; Gavage/Intubation; dose end: 30 day; group: systemic; systemic / in life observation / body weight / body weight gain + systemic / organ weight / liver / absolute + systemic / organ weight / …
# rat [8] = settings: Prenatal developmental toxicity study, sprague dawley, Oral, Gavage/Intubation, dose end: 18 GD
# [9] = systemic / in life observation / body weight / body weight gain + systemic / in life observation / food consumption / food consumption
# [10] = systemic / in life observation / body weight / body weight gain + systemic / in life observation / food consumption / food consumption + …
# [11] = systemic / in life observation / body weight / body weight gain + systemic / organ weight / liver / absolute + systemic / pathology …
# [12] = systemic / organ weight / kidney / absolute + systemic / clinical chemistry / alkaline phosphatase (alp/alk) / alkaline phosphatase (alp/alk…
# [13] = group: developmental, developmental / developmental malformation / bone / full supernumerary
# [14] = group: maternal, systemic / in life observation / body weight / body weight + systemic / in life observation / food consumption / food consumption
compound,measurement,setting,value
CN1N=C2CCN(C(=O)[C@@H](COCc3ccccc3)NC(=O)C(C)(C)N)C[C@@]2(Cc2ccccc2)C1=O [Capromorelin],LEL,rat [1],1 mg/kg/day
same,LOAEL,rat [1],> 75 mg/kg/day
same,NEL,rat [1],< 1 mg/kg/day
same,NOAEL,rat [1],≥ 75 mg/kg/day
same,LEL,rat [2]; [9],1 mg/kg/day
same,NEL,rat [2]; [9],< 1 mg/kg/day
same,LOAEL,rat [2]; [10],> 75 mg/kg/day
same,NOAEL,rat [2]; [10],≥ 75 mg/kg/day
same,LEL,dog [3]; [11],7 mg/kg/day
same,NEL,dog [3]; [11],< 7 mg/kg/day
same,LOAEL,dog [3]; [12],> 40 mg/kg/day
same,NOAEL,dog [3]; [12],≥ 40 mg/kg/day
same,LEL,rat [4],1200 mg/kg/day
same,LOAEL,rat [4],> 1200 mg/kg/day
same,NOAEL,rat [4],≥ 1200 mg/kg/day
same,LEL,mouse [5],30 mg/kg/day
same,LOAEL,mouse [5],> 300 mg/kg/day
same,NEL,mouse [5],< 30 mg/kg/day
same,NOAEL,mouse [5],≥ 300 mg/kg/day
same,LEL,mouse [6],3 mg/kg/day
same,LOAEL,mouse [6],> 300 mg/kg/day
same,NEL,mouse [6],< 3 mg/kg/day
same,NOAEL,mouse [6],≥ 300 mg/kg/day
same,LEL,primate,1 mg/kg/day
same,LOAEL,primate,> 3 mg/kg/day
same,NEL,primate,< 1 mg/kg/day
same,NOAEL,primate,≥ 3 mg/kg/day
same,LOAEL,rabbit,> 150 mg/kg/day
same,NEL,rabbit,50 mg/kg/day
same,NOAEL,rabbit,≥ 150 mg/kg/day
same,LEL,dog [7],40 mg/kg/day
same,LOAEL,dog [7],> 40 mg/kg/day
same,NEL,dog [7],7 mg/kg/day
same,NOAEL,dog [7],≥ 40 mg/kg/day
same,LOAEL,rat [8]; [13],> 75 mg/kg/day
same,NEL,rat [8]; [13],< 1 mg/kg/day
same,NOAEL,rat [8]; [13],≥ 75 mg/kg/day
same,LOAEL,rat [8]; [14],> 75 mg/kg/day
same,NOAEL,rat [8]; [14],≥ 75 mg/kg/day
